Reference: patent US20250325687A1, “CONJUGATE COMPRISING TOLL-LIKE RECEPTOR AGONIST” (MABSOFT THERAPEUTICS (SHANGHAI) CO., LTD., priority 2022, published 2025)
Where two headings read alike, the source gives them in different places.

How the values were obtained:
Type in all cases: cell-based
[1] = biological target: T1, hTLR7 (human Toll-like receptor 7) (Homo sapiens, UniProt Q9NYK1); experiment: hTLR7 cell assay (HEK-Blue hTLR7 reporter cells); conditions: 24 hours, OD 650 nm
T1 construct: host or cells: HEK-Blue hTLR7 (HEK293-derived reporter cells)
T1 sequence (Q9NYK1 27-1049): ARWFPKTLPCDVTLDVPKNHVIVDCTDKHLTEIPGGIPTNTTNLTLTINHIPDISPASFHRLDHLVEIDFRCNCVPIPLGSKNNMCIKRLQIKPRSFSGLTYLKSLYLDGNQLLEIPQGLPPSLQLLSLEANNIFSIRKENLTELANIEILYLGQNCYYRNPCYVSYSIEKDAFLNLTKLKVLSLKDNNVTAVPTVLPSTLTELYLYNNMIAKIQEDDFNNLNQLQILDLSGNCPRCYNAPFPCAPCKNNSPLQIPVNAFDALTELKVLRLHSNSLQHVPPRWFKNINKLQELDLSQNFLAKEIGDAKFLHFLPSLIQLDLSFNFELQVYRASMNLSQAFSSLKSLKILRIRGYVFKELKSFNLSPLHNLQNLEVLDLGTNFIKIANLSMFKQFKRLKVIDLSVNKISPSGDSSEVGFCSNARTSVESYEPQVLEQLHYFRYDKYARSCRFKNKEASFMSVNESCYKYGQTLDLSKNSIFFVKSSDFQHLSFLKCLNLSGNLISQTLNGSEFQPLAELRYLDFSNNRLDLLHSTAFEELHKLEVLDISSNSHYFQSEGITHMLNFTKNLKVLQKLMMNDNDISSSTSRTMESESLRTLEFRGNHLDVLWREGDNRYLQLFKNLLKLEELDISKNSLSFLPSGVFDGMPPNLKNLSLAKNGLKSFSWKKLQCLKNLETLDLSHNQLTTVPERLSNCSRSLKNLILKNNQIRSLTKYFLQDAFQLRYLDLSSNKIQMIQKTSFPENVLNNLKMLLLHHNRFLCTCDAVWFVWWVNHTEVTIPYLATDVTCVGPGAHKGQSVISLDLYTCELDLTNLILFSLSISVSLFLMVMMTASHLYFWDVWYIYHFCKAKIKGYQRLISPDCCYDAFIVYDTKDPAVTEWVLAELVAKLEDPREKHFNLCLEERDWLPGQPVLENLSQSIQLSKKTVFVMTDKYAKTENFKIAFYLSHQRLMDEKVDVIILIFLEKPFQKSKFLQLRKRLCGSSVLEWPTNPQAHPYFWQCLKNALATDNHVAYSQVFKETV
Outline: (§1)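 HEK-Blue reporter cells in HEK-Blue Detection medium (50000 cells/mL) were exposed to test compounds for 24 hours at 37° C, 5% CO2. Agonism was read from supernatant incubated 1 hour at 37° C with QUANTI-Blue, measured as optical density at 650 nm.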

[2] = biological target: T2, hTLR8 (human Toll-like receptor 8) (Homo sapiens, UniProt Q9NR97); experiment: hTLR8 cell assay (HEK-Blue hTLR8 reporter cells); conditions: 24 hours, OD 650 nm
T2 construct: host or cells: HEK-Blue hTLR8 (HEK293-derived reporter cells)
T2 sequence (Q9NR97 27-1041): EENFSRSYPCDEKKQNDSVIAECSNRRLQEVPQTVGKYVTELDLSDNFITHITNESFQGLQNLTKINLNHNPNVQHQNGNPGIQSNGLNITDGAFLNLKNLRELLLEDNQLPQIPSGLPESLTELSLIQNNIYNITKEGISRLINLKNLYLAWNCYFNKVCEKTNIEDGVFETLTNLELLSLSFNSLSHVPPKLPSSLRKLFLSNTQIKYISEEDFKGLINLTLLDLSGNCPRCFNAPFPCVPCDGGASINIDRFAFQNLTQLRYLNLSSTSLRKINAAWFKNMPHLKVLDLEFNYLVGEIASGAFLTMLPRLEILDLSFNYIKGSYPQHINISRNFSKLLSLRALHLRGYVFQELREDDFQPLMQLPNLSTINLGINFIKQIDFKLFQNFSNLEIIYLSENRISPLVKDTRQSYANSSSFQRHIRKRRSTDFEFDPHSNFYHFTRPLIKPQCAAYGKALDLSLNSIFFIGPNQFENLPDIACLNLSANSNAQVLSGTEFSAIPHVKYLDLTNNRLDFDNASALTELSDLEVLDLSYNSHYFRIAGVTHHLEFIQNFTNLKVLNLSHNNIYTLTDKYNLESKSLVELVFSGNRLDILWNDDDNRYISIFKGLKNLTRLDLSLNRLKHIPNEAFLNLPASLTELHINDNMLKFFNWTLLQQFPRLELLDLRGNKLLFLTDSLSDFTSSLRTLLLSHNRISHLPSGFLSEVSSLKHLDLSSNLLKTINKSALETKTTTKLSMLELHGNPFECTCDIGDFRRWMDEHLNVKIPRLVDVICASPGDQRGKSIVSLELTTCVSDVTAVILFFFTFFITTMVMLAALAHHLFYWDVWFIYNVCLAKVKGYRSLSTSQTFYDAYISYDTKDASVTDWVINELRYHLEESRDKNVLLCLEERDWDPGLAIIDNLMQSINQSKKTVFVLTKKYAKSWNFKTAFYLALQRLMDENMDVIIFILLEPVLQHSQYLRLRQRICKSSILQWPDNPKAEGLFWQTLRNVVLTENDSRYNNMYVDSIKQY
Outline: as §1

[3] = tested on: human PBMC (human peripheral blood mononuclear cells); experiment: PBMC screening assay: induction of TNF-α production; conditions: read-out: EC50 (μM) TNF-α (hPBMC)
Protocol: The payload compounds of Formula (II′) were assayed to evaluate the induction of TNF-α production in human PBMC (human peripheral blood mononuclear cells).
Human peripheral blood mononuclear cells (PBMC) were obtained from Allcells. […] PBMC were incubated for 24 hours at 37° C. in a 5% CO2 humidified incubator. The following day PBMC plates were centrifuged at 500×g for 5 minutes and the growth media was removed. 200 μL of compound prepared in growth media at a series of diluted concentrations ranging from 2.54 nM to 50 μM were added to PBMC in duplicate and incubated for 24 hours at 37° C. in a 5% CO2 incubator. Prior to supernatant harvest, cells were spun at 500×g for 5 minutes to remove cell debris. TNF-α activity was assessed in the supernatant by ELISA (Elabscience) per the manufacturer's instructions. Optical density at 450 nm (ELISA) was analyzed using a plate reader.

[4] = human PBMC, 24 hours, TNF-α by ELISA, class symbols

| Compound | EC50 [1] | EC50 [2] | EC50 [3, 4] | EC50 ([3]; Homo sapiens, PBMC, 24 h) |
| --- | --- | --- | --- | --- |
| CCOCc1nc2c(N)nc3cc(Cc4cc(CN)ccc4F)ccc3c2n1CC(C)(C)O [Compound 148, 1-(4-amino-7-(5-(aminomethyl)-2-fluorobenzyl)-2-(ethoxymethyl)-1H-imidazo[4,5-c]quinolin-1-yl)-2-methylpropan-2-ol] | < 1 µM | < 5 µM | < 0.64 µM | – |
| CCOCc1nc2c(N)nc3cc(Cc4ccc(CCN)cc4)ccc3c2n1CC(C)(C)O [Compound 2, 1-(4-amino-7-(4-(2-aminoethyl)benzyl)-2-(ethoxymethyl)-1H-imidazo[4,5-c]quinolin-1-yl)-2-methylpropan-2-ol] | 1 to 10 µM | 5 to 20 µM | – | > 0.64 µM |
| CCCCc1nc2c(N)nc3cc(Cc4cc(CN)ccc4F)ccc3c2n1CC(C)(C)O [Compound 67, 1-(4-amino-7-(5-(aminomethyl)-2-fluorobenzyl)-2-butyl-1H-imidazo[4,5-c]quinolin-1-yl)-2-methylpropan-2-ol] | < 1 µM | < 5 µM | < 0.64 µM | – |
| CCCCc1nc2c(N)nc3cc(Cc4ccc(CN)s4)ccc3c2n1CC(C)(C)O [Compound 69, 1-(4-amino-7-((5-(aminomethyl)thiophen-2-yl)methyl)-2-butyl-1H-imidazo[4,5-c]quinolin-1-yl)-2-methylpropan-2-ol] | < 1 µM | < 5 µM | < 0.64 µM | – |
| CCOCc1nc2c(N)nc3cc(Cc4cccc(N5CCNCC5)c4)ccc3c2n1CC(C)(C)O [Compound 153, 1-(4-amino-2-(ethoxymethyl)-7-(3-(piperazin-1-yl)benzyl)-1H-imidazo[4,5-c]quinolin-1-yl)-2-methylpropan-2-ol] | < 1 µM | < 5 µM | < 0.64 µM | – |
| CCCCc1nc2c(N)nc3cc(C(C)c4cccc(CN)c4)ccc3c2n1CC(C)(C)O (stereo not drawn) [Compound 56, 1-(4-amino-7-(1-(3-(aminomethyl)phenyl)ethyl)-2-butyl-1H-imidazo[4,5-c]quinolin-1-yl)-2-methylpropan-2-ol] | < 1 µM | < 5 µM | < 0.64 µM | – |

Further lines, with some results ahead:

| EC50 [1] | EC50 [2] | Compound | EC50 [3, 4] | EC50 ([3]; Homo sapiens, PBMC, 24 h) |
| --- | --- | --- | --- | --- |
| < 1 µM | < 5 µM | CC(C)(O)Cn1c(COC2CC2)nc2c(N)nc3cc(Cc4cccc(CN)c4)ccc3c21 [Compound 55, 1-(4-amino-7-(3-(aminomethyl)benzyl)-2-(cyclopropoxymethyl)-1H-imidazo[4,5-c]quinolin-1-yl)-2-methylpropan-2-ol] | < 0.64 µM | – |
| 1 to 10 µM | < 5 µM | CCOCc1nc2c(N)nc3cc(Cc4cccc(CNC(=O)CN)c4)ccc3c2n1CC(C)(C)O [Compound 150, 2-amino-N-(3-((4-amino-2-(ethoxymethyl)-1-(2-hydroxy-2-methylpropyl)-1H-imidazo[4,5-c]quinolin-7-yl)methyl)benzyl)acetamide] | < 0.64 µM | – |
| < 1 µM | < 5 µM | CC(C)(O)Cn1c(COCC(F)(F)F)nc2c(N)nc3cc(Cc4cccc(CN)c4)ccc3c21 [Compound 53, 1-(4-amino-7-(3-(aminomethyl)benzyl)-2-((2,2,2-trifluoroethoxy)methyl)-1H-imidazo[4,5-c]quinolin-1-yl)-2-methylpropan-2-ol] | < 0.64 µM | – |
| < 1 µM | < 5 µM | CC(C)(O)Cn1c(CC2CC2)nc2c(N)nc3cc(Cc4cccc(CN)c4)ccc3c21 [Compound 54, 1-(4-amino-7-(3-(aminomethyl)benzyl)-2-(cyclopropylmethyl)-1H-imidazo[4,5-c]quinolin-1-yl)-2-methylpropan-2-ol] | > 0.64 µM | – |
